PubChem BioAssay AID1259407 (Chemical Carcinogenesis Research Information System (CCRIS), 2018)
The source made the active and inactive calls. The rule behind the calls is not given here.

Tested on: CCRIS mutagenicity, Ames/micronucleus/aberration tests
Assay: CCRIS mutagenicity studies
[1] = Test System: AMES SALMONELLA TYPHIMURIUM, Strain/Indicator: TA98, Metabolic Activation: NONE, Method: STANDARD PLATE
[2] = Test System: AMES SALMONELLA TYPHIMURIUM, Strain/Indicator: TA100, Metabolic Activation: NONE, Method: STANDARD PLATE
[3] = Test System: AMES SALMONELLA TYPHIMURIUM, Strain/Indicator: TA98, Metabolic Activation: HAMSTER, LIVER, S-9, AROCLOR 1254 (10%), Method: PREINCUBATION
[4] = Test System: AMES SALMONELLA TYPHIMURIUM, Strain/Indicator: TA98, Metabolic Activation: NONE, Method: PREINCUBATION
[5] = Test System: AMES SALMONELLA TYPHIMURIUM, Strain/Indicator: TA98, Metabolic Activation: RAT, LIVER, S-9, AROCLOR 1254 (10%), Method: PREINCUBATION
[6] = Test System: AMES SALMONELLA TYPHIMURIUM, Strain/Indicator: TA100, Metabolic Activation: HAMSTER, LIVER, S-9, AROCLOR 1254 (10%), Method: PREINCUBATION
[7] = Test System: AMES SALMONELLA TYPHIMURIUM, Strain/Indicator: TA100, Metabolic Activation: NONE, Method: PREINCUBATION
[8] = Test System: AMES SALMONELLA TYPHIMURIUM, Strain/Indicator: TA100, Metabolic Activation: RAT, LIVER, S-9, AROCLOR 1254 (10%), Method: PREINCUBATION
[9] = Test System: AMES SALMONELLA TYPHIMURIUM, Strain/Indicator: TA1535, Metabolic Activation: HAMSTER, LIVER, S-9, AROCLOR 1254 (10%), Method: PREINCUBATION
[10] = Test System: AMES SALMONELLA TYPHIMURIUM, Strain/Indicator: TA1535, Metabolic Activation: NONE, Method: PREINCUBATION
[11] = Test System: AMES SALMONELLA TYPHIMURIUM, Strain/Indicator: TA1535, Metabolic Activation: RAT, LIVER, S-9, AROCLOR 1254 (10%), Method: PREINCUBATION
[12] = Test System: AMES SALMONELLA TYPHIMURIUM, Strain/Indicator: TA1537, Metabolic Activation: HAMSTER, LIVER, S-9, AROCLOR 1254 (10%), Method: PREINCUBATION
[13] = Test System: AMES SALMONELLA TYPHIMURIUM, Strain/Indicator: TA1537, Metabolic Activation: NONE, Method: PREINCUBATION
[14] = Test System: AMES SALMONELLA TYPHIMURIUM, Strain/Indicator: TA1537, Metabolic Activation: RAT, LIVER, S-9, AROCLOR 1254 (10%), Method: PREINCUBATION
[15] = Test System: AMES SALMONELLA TYPHIMURIUM, Strain/Indicator: TA97, Metabolic Activation: NONE, Method: PREINCUBATION

Question: What does the source list for `O=C1c2ccccc2-c2ccc([N+](=O)[O-])c3cccc1c23`?
Answer: mutagenic call (End Point: IN VITRO MICRONUCLEUS, Test System: HUMAN B-LYMPHOBLASTOID CELLS (MCL-5), Metabolic Activation: NONE): active; positive; mutagenic call (End Point: In vivo micronucleus, Test System: lacZ mutant frequency in liver, lung, and bone marrow cells, Species: Mouse, Strain/Sex: Big Blue (BALB/c x DBA2)/Male, Route: Oral): active; positive in liver and bone marrow; mutagenic call (Test System: Human lymphoblastoid cells, Strain/Indicator: MCL-5 (HPRT)/6-Thioguanine, Metabolic Activation: None, Method: Well plates): active; positive; mutagenic call (Test System: Human lymphoblastoid cells, Strain/Indicator: MCL-5 (tk+/tk-)/Trifluorothymidine, Metabolic Activation: None, Method: Well plates): active; positive; mutagenic call (Test System: Human lymphoblastoid cells, Strain/Indicator: h1A1v2 (HPRT)/6-Thioguanine, Metabolic Activation: None, Method: Well plates): active; positive; mutagenic call (Test System: Human lymphoblastoid cells, Strain/Indicator: h1A1v2 (tk+/tk-)/Trifluorothymidine, Metabolic Activation: None, Method: Well plates): active; positive

Question: Which mutagenic call (Test System: AMES SALMONELLA TYPHIMURIUM, Strain/Indicator: TA98, Metabolic Activation: NONE, Method: PREINCUBATION (KCL-CONTAINING MEDIUM)) does the source give for `c1ccc2c(c1)c1c(c3c4ccccc4c4ccccc4c23)O1` here?
Answer: Its mutagenic call is “active; positive”.

Question: What about the mutagenic call (Test System: AMES SALMONELLA TYPHIMURIUM, Strain/Indicator: TA98, Metabolic Activation: NONE, Method: PREINCUBATION (KCL-FREE MEDIUM)) of the same compound?
Answer: The mutagenic call was “active; positive”.

Question: And the mutagenic call (Test System: AMES SALMONELLA TYPHIMURIUM, Strain/Indicator: TA100, Metabolic Activation: NONE, Method: PREINCUBATION (KCL-FREE OR KCL-CONTAINING MEDIA))?
Answer: The mutagenic call was “active; positive”.

Question: For `CC(C)CCCC(C)C1CCC2C3CC=C4CC(OCCO)CCC4(C)C3CCC12C` (stereo not given), which mutagenic call [1] is on record?
Answer: The mutagenic call was “inactive; negative”.

Question: And the mutagenic call (Test System: AMES SALMONELLA TYPHIMURIUM, Strain/Indicator: TA98, Metabolic Activation: RAT, LIVER, MICROSOMES, Method: STANDARD PLATE)?
Answer: Its mutagenic call is “inactive; negative”.

Question: And the mutagenic call [2]?
Answer: Its mutagenic call is “inactive; negative”.

Question: And the mutagenic call (Test System: AMES SALMONELLA TYPHIMURIUM, Strain/Indicator: TA100, Metabolic Activation: RAT, LIVER, MICROSOMES, Method: STANDARD PLATE)?
Answer: Its mutagenic call is “inactive; negative”.

Question: How did the mutagenic call [3] turn out when `C[CH2][Pb]([Cl])([CH2]C)[CH2]C` was run?
Answer: Its mutagenic call is “inactive; negative”.

Question: And the mutagenic call [4]?
Answer: The mutagenic call was “inactive; negative”.

Question: And the mutagenic call [5]?
Answer: The mutagenic call was “inactive; negative”.

Question: What about the mutagenic call [6] of the same compound?
Answer: Its mutagenic call is “inactive; negative”.

Question: And the mutagenic call [7]?
Answer: Its mutagenic call is “inactive; negative”.

Question: What about the mutagenic call [8] of the same compound?
Answer: The mutagenic call was “inactive; negative”.

Question: What about the mutagenic call [9] of the same compound?
Answer: The mutagenic call was “inactive; negative”.

Question: And the mutagenic call [10]?
Answer: The mutagenic call was “inactive; negative”.

Question: What about the mutagenic call [11] of the same compound?
Answer: Its mutagenic call is “inactive; negative”.

Question: And the mutagenic call [12]?
Answer: The mutagenic call was “inactive; negative”.

Question: What about the mutagenic call [13] of the same compound?
Answer: The mutagenic call was “inactive; negative”.

Question: What about the mutagenic call [14] of the same compound?
Answer: Its mutagenic call is “inactive; negative”.

Question: Which mutagenic call (Test System: AMES SALMONELLA TYPHIMURIUM, Strain/Indicator: TA1530, Metabolic Activation: NONE, Method: STANDARD PLATE) does the source give for `[N-]=[N+]=NCCC(N)C(=O)O` (stereo not given) here?
Answer: Its mutagenic call is “active; positive”.

Question: How did the mutagenic call [2] turn out when `O=[N+]([O-])c1cccc2c(Cl)nsc12` was run?
Answer: The mutagenic call was “active; positive”.

Question: How did the mutagenic call (Test System: AMES SALMONELLA TYPHIMURIUM, Strain/Indicator: TA97, Metabolic Activation: NONE, Method: STANDARD PLATE) turn out when `O=Nc1c2ccccc2c2ccc3cccc4ccc1c2c43` was run?
Answer: Its mutagenic call is “active; positive”.

Question: And the mutagenic call (Test System: AMES SALMONELLA TYPHIMURIUM, Strain/Indicator: TA98 (1,8-DNP6), Metabolic Activation: NONE, Method: STANDARD PLATE)?
Answer: Its mutagenic call is “active; positive”.

Question: What about the mutagenic call (Test System: AMES SALMONELLA TYPHIMURIUM, Strain/Indicator: TA98 (NR), Metabolic Activation: NONE, Method: STANDARD PLATE) of the same compound?
Answer: Its mutagenic call is “active; positive”.

Question: And the mutagenic call (Test System: AMES SALMONELLA TYPHIMURIUM, Strain/Indicator: TA98, Metabolic Activation: NONE', Method: STANDARD PLATE)?
Answer: The mutagenic call was “active; positive”.

Question: What about the mutagenic call [1] of the same compound?
Answer: Its mutagenic call is “active; positive”.

Question: And the mutagenic call [2]?
Answer: The mutagenic call was “active; positive”.

Question: And the mutagenic call (Test System: AMES SALMONELLA TYPHIMURIUM, Strain/Indicator: TA104, Metabolic Activation: NONE, Method: STANDARD PLATE)?
Answer: The mutagenic call was “active; positive”.

Question: And the mutagenic call (Test System: CHINESE HAMSTER OVARY, Strain/Indicator: CHO-K1-BH4 (HGPRT), Metabolic Activation: NONE)?
Answer: The mutagenic call was “active; positive”.

Question: What does the source list for `O=C1OC(=O)c2cc([N+](=O)[O-])ccc21`?
Answer: mutagenic call (Test System: AMES SALMONELLA TYPHIMURIUM, Strain/Indicator: TA97, Metabolic Activation: HAMSTER, LIVER, S-9, AROCLOR 1254 (10%), Method: PREINCUBATION): inactive; negative; mutagenic call [15]: active; positive; mutagenic call (Test System: AMES SALMONELLA TYPHIMURIUM, Strain/Indicator: TA97, Metabolic Activation: RAT, LIVER, S-9, AROCLOR 1254 (10%), Method: PREINCUBATION): active; positive; mutagenic call [3]: active; positive; mutagenic call [4]: active; positive; mutagenic call [5]: active; positive; mutagenic call [6]: inactive; negative; mutagenic call [7]: inactive; negative; mutagenic call [8]: inactive; negative; mutagenic call [9]: active; positive; mutagenic call [10]: inactive; negative; mutagenic call [11]: inactive; negative; mutagenic call [12]: inactive; negative; mutagenic call [13]: active; positive; mutagenic call [14]: active; positive

Question: How did the mutagenic call [15] turn out when `CC(C)CCOC(=O)CC(C)C` was run?
Answer: The mutagenic call was “inactive; negative”.

Question: What about the mutagenic call (Test System: AMES SALMONELLA TYPHIMURIUM, Strain/Indicator: TA97, Metabolic Activation: RAT, LIVER, S-9, AROCLOR 1254, Method: PREINCUBATION) of the same compound?
Answer: Its mutagenic call is “inactive; negative”.

Question: And the mutagenic call (Test System: AMES SALMONELLA TYPHIMURIUM, Strain/Indicator: TA102, Metabolic Activation: NONE, Method: PREINCUBATION)?
Answer: Its mutagenic call is “inactive; negative”.

Question: And the mutagenic call (Test System: AMES SALMONELLA TYPHIMURIUM, Strain/Indicator: TA102, Metabolic Activation: RAT, LIVER, S-9, AROCLOR 1254, Method: PREINCUBATION)?
Answer: Its mutagenic call is “inactive; negative”.

Question: With `Cc1ccc(NCC2(O)OC[C@@H](O)[C@@H](O)[C@@H]2O)cc1` (stereo not given in full) as the compound, how does the mutagenic call (Test System: AMES SALMONELLA TYPHIMURIUM, Strain/Indicator: TA100, Metabolic Activation: NONE, Method: LIQUID INCUBATION) read?
Answer: Its mutagenic call is “inactive; negative”.

Question: For `OC[C@H]1O[C@@H](n2cnc3c2ncn2ccnc32)[C@H](O)[C@@H]1O`, which mutagenic call [7] is on record?
Answer: The mutagenic call was “inactive; negative”.

Question: For `CC(=O)ON(OCc1ccccc1)C(=O)c1ccccc1`, which mutagenic call [1] is on record?
Answer: The mutagenic call was “active; positive”.

Question: And the mutagenic call [2]?
Answer: Its mutagenic call is “active; positive”.

Question: And the mutagenic call (Test System: AMES SALMONELLA TYPHIMURIUM, Strain/Indicator: TA100, Metabolic Activation: RAT, S-9, AROCLOR, Method: STANDARD PLATE)?
Answer: The mutagenic call was “active; positive”.

Question: What does the source list for `O=C1c2ccccc2CN2C(=O)c3ccccc3CN12`?
Answer: mutagenic call (Test System: AMES SALMONELLA TYPHIMURIUM, Strain/Indicator: TA98, Metabolic Activation: MOUSE, LIVER, S-9, PHENOBARBITAL AND 5,6-BENZOFLAVONE, Method: STANDARD PLATE): inactive; negative; mutagenic call [1]: inactive; negative; mutagenic call (Test System: AMES SALMONELLA TYPHIMURIUM, Strain/Indicator: TA100, Metabolic Activation: MOUSE, LIVER, S-9, PHENOBARBITAL AND 5,6-BENZOFLAVONE, Method: STANDARD PLATE): inactive; negative; mutagenic call [2]: inactive; negative; mutagenic call (Test System: AMES SALMONELLA TYPHIMURIUM, Strain/Indicator: TA102, Metabolic Activation: MOUSE, LIVER, S-9, PHENOBARBITAL AND 5,6-BENZOFLAVONE, Method: STANDARD PLATE): inactive; negative; mutagenic call (Test System: AMES SALMONELLA TYPHIMURIUM, Strain/Indicator: TA102, Metabolic Activation: NONE, Method: STANDARD PLATE): inactive; negative
